Test results taken from US10253002B2, “Compounds and methods of treating infections” (Neoculi Pty Ltd., priority 2013, dated 2019).
Values after ≈ are worked out from the molar mass of the structure shown. Values joined by “and” are separate entries in the source; they are usually repeats but may differ in a detail not shown here. Equal entries are not always repeated. Where two headings read alike, the source gives them in different places.

Tests used:
[1] = system: MRSA; assay: Broth microdilution MIC, Example 7 (NCL812 and analogues); assay type: cell-based, Staphylococcus aureus; conditions: for activity against MRSA among analogues: MIC testing, two MRSA strains; for MIC: Staphylococcus aureus; for MIC / MRSA: MRSA
Summary of the method: (§1)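 CLSI broth microdilution against two MRSA and two VRE strains, tested in duplicate with a third run if results differed by more than one two-fold dilution.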

[2] = system: VRE; assay: as above; assay type: cell-based, Enterococcus spp.; conditions: for MIC: Enterococcus; for MIC / VRE: VRE; for activity against VRE among analogues: MIC testing, two VRE strains
Summary of the method: as §1

[3] = system: Escherichia coli; assay: as above; assay type: cell-based; conditions: E. coli, 24 hours; for MIC: Escherichia coli
[4] = system: Pseudomonas aeruginosa; assay: as above; assay type: cell-based; conditions: for MIC: Pseudomonas aeruginosa, 24 h
[5] = Bioassay ranking of the analogues tested; conditions: M + R (MRSA and VRE combined)
[6] = MRSA 1, 24 hours, duplicate lines per compound
[7] = 24 h, read-out: MIC (μg/ml) at 24 hours, MRSA 1, MRSA 1, 24 hours, duplicate lines per compound
[8] = 24 h, read-out: MIC (μg/ml) at 24 hours, MRSA 2, MRSA 2, 24 hours, duplicate lines per compound
[9] = bioassay ranking, read-out: MRSA
[10] = 24 h, read-out: MIC (μg/ml) at 24 hours, VRE 1, VRE 1, 24 hours, duplicate lines per compound
[11] = 24 h, read-out: MIC (μg/ml) at 24 hours, VRE 2, VRE 2, 24 hours, duplicate lines per compound
[12] = bioassay ranking, read-out: VRE
[13] = VRE 2, 24 hours, duplicate lines per compound
[14] = read-out: MIC (μg/ml) at 24 hours, duplicate lines per compound
[15] = read-out: MIC (μg/ml) at 24 hours, P. aeruginosa, 24 hours, duplicate lines per compound
[16] = MRSA 2, 24 hours, duplicate lines per compound
[17] = VRE 1, 24 hours, duplicate lines per compound
[18] = 24 hours, duplicate lines per compound
[19] = 24 h, read-out: MIC (μg/ml) at 24 hours MRSA 1, MRSA 1, 24 hours
[20] = 24 h, read-out: MIC (μg/ml) at 24 hours MRSA 2, MRSA 2, 24 hours
[21] = 24 h, read-out: MIC (μg/ml) at 24 hours VRE 1, VRE 1, 24 hours
[22] = 24 h, read-out: MIC (μg/ml) at 24 hours VRE 2, VRE 2, 24 hours
[23] = read-out: MIC (μg/ml) at 24 hours E. coli
[24] = read-out: MIC (μg/ml) at 24 hours P. aeruginosa, P. aeruginosa, 24 hours

SMILES | MIC (μg/ml) at 24 hours, MRSA 1 [1, 6] [µg/mL] | MIC [1, 9] [µg/mL] | MIC [2, 12] [µg/mL] | MIC (μg/ml) at 24 hours, VRE 2 [2, 13] | MIC (μg/ml) at 24 hours, MRSA 2 [1, 16] [µg/mL] | activity against MRSA among analogues [1] | M + R [5] [µg/mL] | MRSA ([1]; bioassay ranking) [µg/mL] | activity against VRE among analogues [2] | VRE ([2]; bioassay ranking) [µg/mL] | other results
Nc1nc(N/N=C/c2cccc(O)c2)cc(N/N=C/c2cccc(O)c2)n1 [NCL197] |  |  |  |  |  | greatest activity | 7.5 | 8 | greatest activity | 7 | MIC (μg/ml) at 24 hours, MRSA 1 ([1]; MRSA 1, 24 hours): 8 µg/mL (≈ 22 µM); MIC (μg/ml) at 24 hours, MRSA 2 ([1]; MRSA 2, 24 hours): 8 µg/mL (≈ 22 µM); MIC (μg/ml) at 24 hours, VRE 1 ([2]; VRE 1, 24 hours): 8 µg/mL and 4 µg/mL; MIC (μg/ml) at 24 hours, VRE 2 ([2]; VRE 2, 24 hours): 8 µg/mL (≈ 22 µM); MIC (μg/ml) at 24 hours, E. coli [3]: >128 µg/mL; MIC (μg/ml) at 24 hours, P. aeruginosa ([4]; 24 hours): >128 µg/mL
Nc1nc(N/N=C/c2ccc(Br)cc2)cc(N/N=C/c2ccc(Br)cc2)n1 [NCL193] |  | 2.5 (≈ 5.11 µM) | 5 (≈ 10.2 µM) |  |  | greatest activity | 3.75 |  | greatest activity |  | MIC (μg/ml) at 24 hours, MRSA 2 ([1]; MRSA 2, 24 hours): 4 µg/mL (≈ 8.18 µM); MIC [1, 19]: 2 µg/mL (≈ 4.09 µM); MIC [1, 20]: 2 µg/mL (≈ 4.09 µM); MIC [2, 21]: 4 µg/mL (≈ 8.18 µM); MIC [2, 22]: 4 µg/mL (≈ 8.18 µM); MIC (μg/ml) at 24 hours, VRE 2 ([2]; VRE 2, 24 hours): 8 µg/mL (≈ 16.4 µM); MIC [3, 23]: > 128 µg/mL; MIC [4, 24]: > 128 µg/mL
CN(C)c1ccc(C=NNC(=N)NN=Cc2ccc(N(C)C)cc2)cc1.Cl [NCL113] | 16 |  |  | 16 µg/mL | 8 | greatest activity | 12 | 12 | greatest activity | 12 | MIC (μg/ml) at 24 hours, VRE 1 [2, 17]: 8 µg/mL; MIC (μg/ml) at 24 hours, E. coli ([3]; duplicate lines per compound): >128 µg/mL; MIC (μg/ml) at 24 hours, P. aeruginosa [4, 18]: >128 µg/mL

Second part, led by results:

MIC (μg/ml) at 24 hours, MRSA 1 [1, 6] [µg/mL] | MIC [1, 9] [µg/mL] | MIC [2, 12] [µg/mL] | MIC (μg/ml) at 24 hours, VRE 2 [2, 13] | MIC (μg/ml) at 24 hours, MRSA 2 [1, 16] [µg/mL] | SMILES | activity against MRSA among analogues [1] | M + R [5] [µg/mL] | MRSA ([1]; bioassay ranking) [µg/mL] | activity against VRE among analogues [2] | VRE ([2]; bioassay ranking) [µg/mL] | other results
8 | 5 | 0.75 | 1 µg/mL |  | C/C(=N\NC(=N)N/N=C(\C)c1ccc(C(F)(F)F)cc1)c1ccc(Cl)cc1.Cl [NCL089] | greatest activity | 2.875 |  |  |  | MIC [1, 7]: 4 µg/mL; MIC [1, 8]: 4 µg/mL; MIC [2, 10]: 0.5 µg/mL; MIC [2, 11]: 1 µg/mL; MIC [3, 14]: > 128 µg/mL; MIC [4, 15]: > 128 µg/mL
16 |  |  | 8 µg/mL and 4 µg/mL | 16 | Cl.N=C(N/N=C/c1ccc(Cl)cc1)N/N=C/c1ccc(Cl)cc1Cl [NCL074] | greatest activity | 9.875 | 16 | greatest activity | 3.75 | MIC (μg/ml) at 24 hours, VRE 1 [2, 17]: 2 µg/mL and 1 µg/mL; MIC (μg/ml) at 24 hours, E. coli ([3]; duplicate lines per compound): >128 µg/mL; MIC (μg/ml) at 24 hours, P. aeruginosa [4, 18]: >128 µg/mL
 | 4 | 3 |  |  | C/C(=N\NC(=N)N/N=C(\C)c1ccc(C)cc1)c1ccc(C)cc1.Cl [NCL217] | greatest activity | 3.5 |  | greatest activity |  | MIC [1, 19]: 4 µg/mL; MIC [1, 20]: 4 µg/mL; MIC [2, 21]: 2 µg/mL; MIC [2, 22]: 4 µg/mL; MIC [3, 23]: > 128 µg/mL; MIC [4, 24]: > 128 µg/mL
 | 5 | 3 |  | 8 | C/C(=N\NC(=N)N/N=C/c1ccc(Cl)cc1)c1ccc(C(F)(F)F)cc1.Cl [NCL080] | greatest activity | 4 |  | greatest activity |  | MIC [1, 7]: 4 µg/mL; MIC [1, 8]: 4 µg/mL; MIC [2, 10]: 2 µg/mL; MIC [2, 11]: 4 µg/mL; MIC [3, 14]: > 128 µg/mL; MIC [4, 15]: > 128 µg/mL
